The values below come from US8581584B2, “Membrane proteins, mechanisms of action and uses thereof” (priority 2010, dated 2013).

For the test, the target named is M2 conductance domain (residues 22-62) (Influenza A virus, UniProt P0DOF5, C50S). The test is classed as biochemical, influenza A Udorn/1972 virus.

`NC12CC3CC(CC(C3)C1)C2` [amantadine]: the “blockage of proton uptake” value is reported as around 80% and the “proton flux, initial slope of proton uptake per tetramer vs time” value is recorded as 30 protons per tetramer per second.
